Earlier results as cited in patent US10010615B2 (KemPharm, Inc., priority 2009, dated 2018).

Legend:
human NET = human NET (Homo sapiens, UniProt P23975); settings: relative to quetiapine
leptin = settings: chronic oral administration for 6 weeks

human NET, sequence (P23975 whole entry): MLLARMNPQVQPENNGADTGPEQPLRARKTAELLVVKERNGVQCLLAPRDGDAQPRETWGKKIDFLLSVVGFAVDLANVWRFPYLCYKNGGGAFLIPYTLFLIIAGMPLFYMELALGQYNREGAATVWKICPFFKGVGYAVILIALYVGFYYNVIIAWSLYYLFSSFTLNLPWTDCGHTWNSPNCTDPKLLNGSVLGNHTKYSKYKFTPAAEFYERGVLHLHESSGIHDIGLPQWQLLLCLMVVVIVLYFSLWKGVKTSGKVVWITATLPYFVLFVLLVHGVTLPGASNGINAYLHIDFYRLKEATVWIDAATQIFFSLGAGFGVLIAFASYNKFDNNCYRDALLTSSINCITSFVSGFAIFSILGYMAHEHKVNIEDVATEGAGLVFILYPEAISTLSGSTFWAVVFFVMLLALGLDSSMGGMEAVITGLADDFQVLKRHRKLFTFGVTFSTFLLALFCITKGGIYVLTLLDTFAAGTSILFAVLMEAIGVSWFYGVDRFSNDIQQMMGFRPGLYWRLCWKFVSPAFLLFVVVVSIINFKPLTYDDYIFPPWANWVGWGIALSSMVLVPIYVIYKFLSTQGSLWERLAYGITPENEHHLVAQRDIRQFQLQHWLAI

SMILES	higher avidity for inhibiting human NET than quetiapine (human NET)	increase in leptin release (leptin)
c1ccc2c(c1)N=C(N1CCNCC1)c1ccccc1S2 [N-desalkyl-quetiapine, 4-(dibenzo[b,f][1,4]thiazepin-11-yl)piperazine]	about 100 fold	
OCCOCCN1CCN(C2=Nc3ccccc3Sc3ccccc32)CC1 [quetiapine, 2-(2-(4-(dibenzo[b,f][1,4]thiazepin-11-yl)piperazin-1-yl)ethoxy)ethanol]		about 37%
